Data on 14 molecules can be found in patent US9102637B2, “Bicyclic thiazole compounds” (CARNA BIOSCIENCES INC., priority 2013, dated 2015).

A word on the IC50: it is the concentration needed to halve the response being measured.

Chain of human TNIK (N-terminal segment, TNIK_N, residues 1-314) (Q9UKE5 1-314): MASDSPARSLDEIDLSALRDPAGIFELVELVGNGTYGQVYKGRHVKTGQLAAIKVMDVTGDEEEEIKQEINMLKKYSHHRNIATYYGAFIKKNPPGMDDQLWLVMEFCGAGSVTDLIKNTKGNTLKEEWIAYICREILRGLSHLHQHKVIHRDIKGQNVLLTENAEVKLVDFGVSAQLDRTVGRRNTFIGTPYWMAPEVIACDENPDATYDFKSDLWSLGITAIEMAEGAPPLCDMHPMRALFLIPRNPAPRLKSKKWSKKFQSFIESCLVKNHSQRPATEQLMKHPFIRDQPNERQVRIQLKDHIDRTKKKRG

In this experiment the target is human TNIK (N-terminal segment, TNIK_N, residues 1-314) (Homo sapiens (Human), UniProt Q9UKE5). The experiment in a line: TNIK kinase assay (mobility shift). In kind it is biochemical. The following applies: TNIK_N kinase activity, 25 μM ATP, 1 h at room temperature. The source says:
Preparation of Recombinant Human TNIK (N-Terminal Segment):
A cDNA encoding the N-terminal segment (TNIK_N, residues 1-314) containing the kinase domain of human TNIK (NM_015028.1) was amplified from cDNA mixture synthesized from human tissue (Biochain) by PCR using the following primers.
The cDNA was subcloned into baculovirus transfer vector pFastBac_GSTb that includes protease cleavage site and glutathione S-transferase purification tag (GST-tag). The plasmid was purified and the insertion of the pFastBac_GSTb-TNIK_N was confirmed by DNA sequencing. Then E. coli DH10Bac competent cells were transformed with the plasmid to prepare the recombinant bacmid according to the instructions for the Bac-to-Bac™ baculovirus expression systems (Invitrogen). The Sf9 cells were transfected with the recombinant bacmid containing pFastBac_GSTb-TNIK_N using Cellfectin Reagent (Invitrogen) in SF-9001I serum free media (Invitrogen). The viral supernatant was collected from the medium 72 h after transfection. The virus was amplified three times by infecting actively growing Sf9 or Sf21 cells in Grace's insect media (Invitrogen) supplemented with 10% FCS and an antibiotic-antimycotic reagent (Invitrogen) for 72 h at 27° C. in T-flask or roller bottles. The titer of amplified TNIK_N virus was estimated at 2.36×10^8 pfu/ml by using BacPAK™ Baculovirus Rapid Titer kit (Clontech).
Log-phase Sf21 cells (2×10^6 cells/ml) in the Grace's insect media were infected with the recombinant baculovirus at MOI of 3.0 and incubated in roller bottles (250 ml media per bottle) for 72 h at 27° C., after which, the cells were collected by centrifugation, and the cell pellet washed with cold PBS and kept at −80° C. until purification. The following purification procedures were carried out at 4° C. The frozen cells were thawed on ice and lysed in lysis buffer (50 mM Tris-HCl, pH 7.5, 150 mM NaCl, 1% Nonidet P-40, 5 mM DTT, 0.5 mM EDTA, 0.5 mM EGTA) supplemented with 1 mM phenylmethansulfonylfluoride, 2 μg/ml leupeptin, 2 μg/ml aprotinin, 1 mM NaF, 100 μM sodium orthovanadate, and 1 μM cantharidin by sonication. The suspended lysate was cleared by centrifugation at 9000g for 20 min and the supernatant was incubated for 1 h with glutathione Sepharose beads (GE Healthcare). The beads were suspended in buffer-H (50 mM Tris-HCl, pH 7.5, 1 M NaCl, 1 mM DTT, 0.5 mM EDTA, 0.5 mM EGTA and 0.05% Brij35) and washed with buffer-H followed by buffer-L (50 mM Tris-HCl, pH 7.5, 150 mM NaCl, 1 mM DTT, 0.5 mM EDTA, 0.5 mM EGTA, 0.05% Brij35) in an Econo-pack column (BIO-RAD). The bound TNIK_N was eluted with elution buffer (50 mM Tris-HCl, pH 8.0, 150 mM NaCl, 1 mM DTT, 10% glycerol, 0.5 mM EDTA, 0.5 mM EGTA and 5 mM reduced glutathione). The eluted fractions were collected and determined the protein concentration by Bradford reagent (BIO-RAD). The TNIKN fractions were pooled and desalted using 10DG column (BIORAD) equilibrated with the storage buffer (50 mM Tris-HCl, pH 7.5, 150 mM NaCl, 1 mM DTT, 10% glycerol, 0.05% Brij35). The purified TNIKN was characterized by electrophoresis using 4-20% polyacrylamide gels and matrix-assisted laser desorption/ionization reflection time-of-flight (MALDI-TOF) mass spectrometry on a Voyager-DE RP MALDI/TOF (Applied Biosystems). TNIK_N was confirmed by the molecular weight and. MASCOT Peptide Mass Fingerprint.
The kinase assays were conducted in a 20 μl volume using 384-well plates (Greiner). The reaction mixture consists of compound or vehicle (1% DMSO), 0.08 ng/μl TNIK_N, 1 μM FITC-labeled substrate peptides, including E-aminocaproic acid and 7 amino acids (described as SEQ ID NO.3 in “Kinase assay of TEST EXAMPLE 1” of WO 2010/064111(P.31)), 20 mM Hepes, pH 7.5, 0.01% Triton X-100, 5 mM MgCl2, 25 μM ATP and 2 mM DTT. As blank, TNIK N was excluded from the reaction mixture of vehicle (1% DMSO). […]
Consider `NC(=O)c1nc(Nc2ccc3cc(F)ccc3c2)sc1NC(=O)c1ccc(Cn2ccnc2)cc1` [Example 249, 5-{4-[(1H-imidazol-1-yl)methyl]benzamido}-2-[(6-fluoronaphthalen-2-yl)amino]thiazole-4-carbox-amide], for which the IC50 came to 10.1 nM.
`NC(=O)c1nc(Nc2ccc3ccccc3c2)sc1NC(=O)c1ccc(CCO)cc1` [Example 116, 5-[4-(2-hydroxyethyl)benzamido]-2-(naphthalen-2-ylamino)thiazole-4-carboxamide]: the half-maximal inhibitory concentration (IC50) was found to be 5.8 nM.
Regarding `NC(=O)c1nc(Nc2ccc3ccccc3c2)sc1NC(=O)c1ccc(CNCCO)cc1` [Example 163, 5-(4-{[(2-hydroxyethyl)amino]methyl}benzamido)-2-(naphthalen-2-ylamino)thiazole-4-carboxamide], the IC50 amounted to 3.7 nM.
`NC(=O)c1nc(Nc2ccc3ncccc3c2)sc1NC(=O)c1ccc(Cn2ccnc2)cc1` [Example 250, 5-{4-[(1H-imidazol-1-yl)methyl]benzamido}-2-(quinolin-6-ylamino)thiazole-4-carboxamide]: the concentration for half-maximal inhibition (IC50) is 3 nM.
On to `NC(=O)c1nc(Nc2ccc3ccccc3c2)sc1NC(=O)c1ccc(CN2CCNC(=O)C2)cc1` [Example 180, 2-(naphthalen-2-ylamino)-5-{4-[(3-oxopiperazin-1-yl)methyl]benzamido}thiazole-4-carboxamide], for which the 50% inhibitory concentration (IC50) is 4.2 nM.
In the case of `NC(=O)c1nc(Nc2ccc3ccccc3c2)sc1NC(=O)c1ccc(Cn2cnc(CO)c2)cc1` [Example 246, 5-{4-[(4-(hydroxymethyl)-1H-imidazol-1-yl)methyl]benzamido}-2-(naphthalen-2-ylamino)thiazole-4-carboxamide] it was 3.5 nM.
In the case of `COc1ccc2cc(Nc3nc(C(N)=O)c(NC(=O)c4ccc(NCCO)cc4)s3)ccc2c1` [Example 113, 5-{4-[(2-hydroxyethyl)amino]benzamido}-2-[(6-methoxynaphthalen-2-yl)amino]thiazole-4-carbox-amide] it was 14.8 nM; in that of `CN(C)[C@H]1CCN(Cc2ccc(C(=O)Nc3sc(Nc4ccc5ccccc5c4)nc3C(N)=O)cc2)C1` [Example 221, (S)-5-(4-{[3-(dimethylamino)pyrrolidin-1-yl]methyl}benzamido)-2-(naphthalen-2-ylamino) thiazole-4-carboxamide], 2.6 nM; in that of `CC(O)CNc1ccc(C(=O)Nc2sc(Nc3ccc4ccccc4c3)nc2C(N)=O)cc1` (centres unmarked) [Example 30, 5-{4-[(2-hydroxypropyl)amino]benzamido}-2-(naphthalen-2-ylamino)thiazole-4-carboxamide], 10.7 nM.
Consider `COc1ccc2cc(Nc3nc(C(N)=O)c(NC(=O)C=C(C)C)s3)ccc2c1` [Example 137, 2-[(6-methoxynaphthalen-2-yl)amino]-5-(3-meth-ylbut-2-enamido)thiazole-4-carboxamide], for which the IC50 turned out to be 15.2 nM.
For the molecule `Cc1cn(Cc2ccc(C(=O)Nc3sc(Nc4ccc5ccccc5c4)nc3C(N)=O)cc2)cn1` [Example 238, 5-{4-[(4-methyl-1H-imidazol-1-yl)methyl]benz-amido}-2-(naphthalen-2-ylamino)thiazole-4-carbox-amide], the IC50 was determined as 3.1 nM.
On to `NC(=O)c1nc(Nc2ccc3ccc(F)cc3c2)sc1NC(=O)c1ccc(NCCO)cc1` [Example 124, 2-[(7-fluoronaphthalen-2-yl)amino]-5-{4-[(2-hydroxyethyl)amino]benzamido}thiazole-4-carbox-amide], for which the half-inhibitory concentration (IC50) was found to be 12.9 nM.
As to `Cc1nccn1Cc1ccc(C(=O)Nc2sc(Nc3ccc4ccccc4c3)nc2C(N)=O)cc1` [Example 237, 5-{4-[(2-methyl-1H-imidazol-1-yl)methyl]benz-amido}-2-(naphthalen-2-ylamino)thiazole-4-carbox-amide], the concentration for half-maximal inhibition (IC50) came to 2.3 nM.
Turning to `NC(=O)c1nc(Nc2ccc3ccccc3c2)sc1NC(=O)c1ccc(CN2CCN(CCO)CC2)cc1` [Example 185, 5-(4-{[4-(2-hydroxyethyl)piperazin-1-yl]methyl}benzamido)-2-(naphthalen-2-ylamino)thiazole-4-carboxamide], the IC50 was found to be 2.7 nM.
